In brackets after ≈: the same amount, converted by molar mass.
How the values were obtained:
[1] = test system: wild-type C. albicans strain (SC5314); assay: Antifungal susceptibility testing (dose-response growth, OD600); format: cell-based, Candida albicans; conditions: for MIC50: Candida albicans
Method: A wild-type C. albicans strain (SC5314) was seeded at 1 × 10^4 cells/ml into YNB medium without folate or PABA with the indicated supplements and increasing concentrations of MTX. After 48 h of incubation at 30°C, growth was quantified as the OD600 value and expressed as a percentage of the value for the DMSO-treated control. The values presented here are the average of two replicates and are representative of two independent experiments.
Approximately 1 × 10^4 cells/ml of a wild-type C. albicans strain was seeded into a 96-well plate with increasing concentrations of MTX in YNB pH 5, YNB pH 7, and RPMI pH 7 media. After 48 h, the OD600 was measured and expressed as a percentage of the value for the DMSO-treated control. The results presented here are the averages of two replicates and are representative of two independent experiments.
Stock solutions of MTX were prepared at 10 mM in dimethyl sulfoxide (DMSO) and diluted as needed in the same solvent. […] The final concentration of DMSO was 0.5% for all treatments. Plates were then incubated at 30°C before growth was quantified after 24 and 48 h by measuring the OD600 using a Cytation 5 plate reader (Bio-Tek Instruments, Inc.). MIC50 values were identified visually using the CLSI antifungal susceptibility assay and then confirmed by quantifying growth by the OD600 value. The growth of each strain at each drug concentration was then expressed relative to that of the DMSO-alone control. The susceptibility to MTX at the highest concentration at each pH was compared to that of the other pH values using a two-tailed Student's t test.

[2] = test system: Candida tropicalis; assay: Antifungal susceptibility testing, other species; format: cell-based; conditions: YNB medium at pH 5 and pH 7
Method: (§1) Strains of C. albicans (A), C. glabrata (B), C. tropicalis (C), and C. parapsilosis (D) were seeded into YNB medium buffered at pH 5 or pH 7 at approximately 1 × 10^4 cells/ml in the presence of a range of MTX concentrations. After 48 h at 30°C, growth was quantified as the OD600 and expressed as a percentage of the value for the untreated controls. The values presented here are the average of two replicates and are representative of two experiments. The susceptibility to MTX at the highest concentration at each pH was compared to that of the other pH values using a two-tailed Student's t test (*, P < 0.01; **, P < 0.0001).
(§2) Stock solutions of MTX were prepared at 10 mM in dimethyl sulfoxide (DMSO) and diluted as needed in the same solvent. Each C. albicans strain was grown overnight in YPD medium at 30°C and diluted to approximately 1 × 10^4 cells/ml in YNB medium or RPMI 1640 medium, and 100 μl of each cell suspension was transferred to the wells of a round-bottom 96-well plate. An additional 100 μl of YNB or RPMI 1640 medium containing 2× the final desired concentration of MTX was then added to each well. The final concentration of DMSO was 0.5% for all treatments. Plates were then incubated at 30°C before growth was quantified after 24 and 48 h by measuring the OD600 using a Cytation 5 plate reader (Bio-Tek Instruments, Inc.). MIC50 values were identified visually using the CLSI antifungal susceptibility assay and then confirmed by quantifying growth by the OD600 value. The growth of each strain at each drug concentration was then expressed relative to that of the DMSO-alone control. The susceptibility to MTX at the highest concentration at each pH was compared to that of the other pH values using a two-tailed Student's t test.

[3] = test system: Candida glabrata; assay: Antifungal susceptibility testing, other species; format: cell-based; conditions: YNB medium at pH 5 and pH 7
Method: as §1, §2

[4] = test system: Candida parapsilosis; assay: Antifungal susceptibility testing, other species; format: cell-based; conditions: YNB medium at pH 5 and pH 7
Method: as §1, §2

[5] = test system: C. albicans cdr1Δ/Δ, tac1Δ/Δ and mdr1Δ/Δ mutants; assay: Antifungal susceptibility testing of efflux pump mutants; format: cell-based, Candida albicans; conditions: for MIC50: Candida albicans
Method: C. albicans cdr1Δ/Δ (A), tac1Δ/Δ (B), or mdr1Δ/Δ (C) strains, or that overexpress CDR1 (A), TAC1 (B), or MDR1 (C) from the PTEF1 promoter, were subcultured to approximately 1 × 10^4 cells/ml into YNB medium at pH 5 or pH 7 supplemented with a range of MTX concentrations. After 48 h at 30°C, growth was quantified as the OD600 value and expressed as a percentage of the value for the untreated wells. The values presented here are the average of two replicates and are representative of two independent experiments. WT, wild type.
as §2

## CN(Cc1cnc2nc(N)nc(N)c2n1)c1ccc(C(=O)N[C@@H](CCC(=O)O)C(=O)O)cc1 [Methotrexate, methotrexate]
[1]; SC5314, YNB medium with additional supplements of folic acid (up to 25 μM)
  MIC50: 0.078 µM (≈ 0.0354 µg/mL)
[1]; SC5314, YNB with addition of 250 μM folinic acid
  MIC50: ~5 µM (≈ 2.27 µg/mL)
[1]; SC5314, pH 5, YNB pH 5 medium
  MIC50: ~0.78 µM (≈ 0.354 µg/mL)
[1]; SC5314, pH 7, RPMI 1640 pH 7 medium
  MIC50: > 50 µM
[1]; SC5314, pH 7, YNB pH 7 medium
  MIC50: > 50 µM
[1]; SC5314, unbuffered standard YNB medium
  MIC50: ~0.78 µM (≈ 0.354 µg/mL)
[1]; YNB medium
  effect of 1 μM DHF, THF or 5MTHF supplement on MTX-mediated growth inhibition: had no effect
[1]; versus standard YNB medium
  drop of MIC50 with folic acid supplements: ~10 fold
[2]
  growth inhibition (in words): modest and pH-dependent growth inhibition
[3]
  growth inhibition (in words): insensitive at either pH
[4]
  growth inhibition (in words): modest and pH-dependent growth inhibition
[5]; pH 5
  MIC50: 0.39 µM (≈ 0.177 µg/mL)
[5]; pH 7
  MIC50: > 6.25 µM
[5]; YNB medium at pH 5 or 7
  susceptibility of mdr1Δ/Δ mutant versus MDR1+ control strains: not significantly different
